# Target: T1, human mAChR M4 (Homo sapiens, UniProt P08173)
# T1 construct: expressed in transfected cells; host or cells: CHO-K1 (ATCC), stably expressing hM4 and Gqi5
# T1 sequence (P08173 1-479): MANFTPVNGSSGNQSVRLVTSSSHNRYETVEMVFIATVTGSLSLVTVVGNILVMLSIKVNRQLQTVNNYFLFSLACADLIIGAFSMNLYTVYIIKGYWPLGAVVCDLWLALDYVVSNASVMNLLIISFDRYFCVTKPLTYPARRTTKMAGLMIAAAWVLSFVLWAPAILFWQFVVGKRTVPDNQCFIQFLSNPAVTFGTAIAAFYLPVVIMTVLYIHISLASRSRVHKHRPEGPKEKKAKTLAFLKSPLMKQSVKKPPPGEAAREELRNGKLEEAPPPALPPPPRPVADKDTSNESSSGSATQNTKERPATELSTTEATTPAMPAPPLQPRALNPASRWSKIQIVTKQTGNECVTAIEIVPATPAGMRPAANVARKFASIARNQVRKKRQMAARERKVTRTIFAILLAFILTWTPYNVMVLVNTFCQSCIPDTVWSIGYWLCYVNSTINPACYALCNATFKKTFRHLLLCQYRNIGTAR
# Experiment: mAChR M4 cell-based functional assay: calcium flux (Fluo-4, FDSS), positive allosteric modulator activity on the EC20 acetylcholine response, hM4-Gqi5 CHO-K1 cells
# Conditions: for Emax at 30 µM: CHO-K1, human M4, % ACh maximum at 30 μM; for EC50: human M4, PAM activity on EC20 acetylcholine response, calcium flux, read-out: Human M4 EC50
# Summary of the method: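 CHO-K1 cells stably expressing human M4 with chimeric Gqi5, loaded with Fluo-4 AM for 50 min at 37° C. Compounds (11-point, 1:3 dilutions) added first, then an acetylcholine EC20 at 144 s; calcium read on FDSS at 1 Hz. EC50 is the half-maximal increase above the EC20 baseline, four-parameter logistic fit.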
SMILES,Emax at 30 µM,EC50
"COc1ccc2ncnc(N3CCc4ncc(Nc5cccnc5F)cc4C3)c2c1 [Compound 81, N-(2-fluoro-3-pyridyl)-6-(6-methoxyquinazolin-4-yl)-7,8-dihydro-5H-1,6-naphthyridin-3-amine]",95%,460 nM
"Fc1ccc2ncnc(N3CCc4ncc(Nc5cccnc5F)cc4C3)c2c1 [Compound 82, N-(2-fluoro-3-pyridyl)-6-(6-fluoroquinazolin-4-yl)-7,8-dihydro-5H-1,6-naphthyridin-3-amine]",104%,70 nM
"Clc1ccc2ncnc(N3CCc4ncc(N5CCCn6nccc65)cc4C3)c2c1 [Compound 83, 6-chloro-4-[3-(6,7-dihydro-5H-pyrazolo[1,5-a]pyrimidin-4-yl)-7,8-dihydro-5H-1,6-naphthyridin-6-yl]quinazoline]",108%,20 nM
"Cc1nc(N2CCc3ncc(Nc4ccnn4C)cc3C2)c2cc(F)ccc2n1 [Compound 86, 6-(6-fluoro-2-methyl-quinazolin-4-yl)-N-(2-methylpyrazol-3-yl)-7,8-dihydro-5H-1,6-naphthyridin-3-amine]",91%,30 nM
"Fc1ncccc1Nc1cnc2c(c1)CN(c1nc(Cl)nc3ccc(Cl)cc13)CC2 [Compound 88, 6-(2,6-dichloroquinazolin-4-yl)-N-(2-fluoro-3-pyridyl)-7,8-dihydro-5H-1,6-naphthyridin-3-amine]",103%,1070 nM
"Clc1ccc2nc(Cl)nc(N3CCc4ncc(N5CCCn6nccc65)cc4C3)c2c1 [Compound 89, 2,6-dichloro-4-[3-(6,7-dihydro-5H-pyrazolo[1,5-a]pyrimidin-4-yl)-7,8-dihydro-5H-1,6-naphthyridin-6-yl]quinazoline]",109%,250 nM
"COc1ccc2ncnc(N3CCc4ncc(N5CCC(C(F)(F)F)n6nccc65)cc4C3)c2c1 (stereo not shown) [Compound 90, 6-methoxy-4-[3-[7-(trifluoromethyl)-6,7-dihydro-5H-pyrazolo[1,5-a]pyrimidin-4-yl]-7,8-dihydro-5H-1,6-naphthyridin-6-yl]quinazoline]",76%,1360 nM
"Cc1ccc2ncnc(N3CCc4ncc(N5CCC(C(F)(F)F)n6nccc65)cc4C3)c2c1 (stereo not shown) [Compound 91, 6-methyl-4-[3-[7-(trifluoromethyl)-6,7-dihydro-5H-pyrazolo[1,5-a]pyrimidin-4-yl]-7,8-dihydro-5H-1,6-naphthyridin-6-yl]quinazoline]",116%,130 nM
"Clc1nc(N2CCc3ncc(N4CCCn5nccc54)cc3C2)c2cccnc2n1 [Compound 94, 2-chloro-4-[3-(6,7-dihydro-5H-pyrazolo[1,5-a]pyrimidin-4-yl)-7,8-dihydro-5H-1,6-naphthyridin-6-yl]pyrido[2,3-d]pyrimidine]",88%,130 nM
"Clc1nc(N2CCc3ncc(N4CCOc5ncccc54)cc3C2)c2cccnc2n1 [Compound 95, 1-[6-(2-chloropyrido[2,3-d]pyrimidin-4-yl)-7,8-dihydro-5H-1,6-naphthyridin-3-yl]-2,3-dihydropyrido[2,3-b][1,4]oxazine]",78%,420 nM
"Cc1ccc2ncnc(N3CCc4ncc(Nc5ccnn5C)cc4C3)c2c1 [Compound 96, N-(2-methylpyrazol-3-yl)-6-(6-methylquinazolin-4-yl)-7,8-dihydro-5H-1,6-naphthyridin-3-amine]",94%,80 nM
"Fc1cc2ncnc(N3CCc4ncc(N5CCOc6ncccc65)cc4C3)c2cc1F [Compound 98, 1-[6-(6,7-difluoroquinazolin-4-yl)-7,8-dihydro-5H-1,6-naphthyridin-3-yl]-2,3-dihydropyrido[2,3-b][1,4]oxazine]",97%,30 nM
"Cc1ccc2nc(C)nc(N3CCc4ncc(N5CCOc6ncccc65)cc4C3)c2c1 [Compound 99, 1-[6-(2,6-dimethylquinazolin-4-yl)-7,8-dihydro-5H-1,6-naphthyridin-3-yl]-2,3-dihydropyrido[2,3-b][1,4]oxazine]",101%,100 nM
"Cc1ccc2nc(C)nc(N3CCc4ncc(N5CCCn6nccc65)cc4C3)c2c1 [Compound 100, 4-[3-(6,7-dihydro-5H-pyrazolo[1,5-a]pyrimidin-4-yl)-7,8-dihydro-5H-1,6-naphthyridin-6-yl]-2,6-dimethyl-quinazoline]",101%,60 nM
"COc1cc2c(N3CCc4ncc(N5CCCn6nccc65)cc4C3)nc(Cl)nc2cc1F [Compound 102, 2-chloro-4-[3-(6,7-dihydro-5H-pyrazolo[1,5-a]pyrimidin-4-yl)-7,8-dihydro-5H-1,6-naphthyridin-6-yl]-7-fluoro-6-methoxy-quinazoline]",78%,210 nM
"CC1(C)CN(c2cnc3c(c2)CN(c2ncnc4ccc(F)cc24)CC3)CCO1 [Compound 103, 4-[6-(6-fluoroquinazolin-4-yl)-7,8-dihydro-5H-1,6-naphthyridin-3-yl]-2,2-dimethyl-morpholine]",63%,50 nM
"Clc1ccc2ncnc(N3CCc4ncc(N5CCOc6ncccc65)cc4C3)c2c1 [Compound 105, 1-[6-(6-chloroquinazolin-4-yl)-7,8-dihydro-5H-1,6-naphthyridin-3-yl]-2,3-dihydropyrido[2,3-b][1,4]oxazine]",91%,70 nM
"Cn1nccc1Nc1cnc2c(c1)CN(c1ncnc3ccc(Cl)cc13)CC2 [Compound 106, 6-(6-chloroquinazolin-4-yl)-N-(2-methylpyrazol-3-yl)-7,8-dihydro-5H-1,6-naphthyridin-3-amine]",95%,130 nM
"Cc1nc(N2CCc3ncc(N4CCOc5ncccc54)cc3C2)c2cc(Cl)ccc2n1 [Compound 107, 1-[6-(6-chloro-2-methyl-quinazolin-4-yl)-7,8-dihydro-5H-1,6-naphthyridin-3-yl]-2,3-dihydropyrido[2,3-b][1,4]oxazine]",98%,140 nM
"Cc1nc(N2CCc3ncc(Nc4ccnn4C)cc3C2)c2cc(Cl)ccc2n1 [Compound 108, 6-(6-chloro-2-methyl-quinazolin-4-yl)-N-(2-methylpyrazol-3-yl)-7,8-dihydro-5H-1,6-naphthyridin-3-amine]",102%,170 nM

# The remaining compounds from weak to strong by EC50, led by results:
Emax at 30 µM,EC50,SMILES
92%,480 nM,"Cc1nc(N2CCc3ncc(N4CCCn5nccc54)cc3C2)c2cc(C(F)(F)F)ccc2n1 [Compound 101, 4-[3-(6,7-dihydro-5H-pyrazolo[1,5-a]pyrimidin-4-yl)-7,8-dihydro-5H-1,6-naphthyridin-6-yl]-2-methyl-6-(trifluoromethyl)quinazoline]"
80%,460 nM,"Fc1cc2c(N3CCc4ncc(N5CCCn6nccc65)cc4C3)nc(Cl)nc2cc1Cl [Compound 109, 2,7-dichloro-4-[3-(6,7-dihydro-5H-pyrazolo[1,5-a]pyrimidin-4-yl)-7,8-dihydro-5H-1,6-naphthyridin-6-yl]-6-fluoro-quinazoline]"
114%,230 nM,Cc1nc(N2CCc3ncc(N4CCCn5nccc54)cc3C2)c2cc(Cl)ccc2n1 [Compound 84]
110%,190 nM,"Fc1ccc2nc(Cl)nc(N3CCc4ncc(N5CCCn6nccc65)cc4C3)c2c1 [Compound 87, 2-chloro-4-[3-(6,7-dihydro-5H-pyrazolo[1,5-a]pyrimidin-4-yl)-7,8-dihydro-5H-1,6-naphthyridin-6-yl]-6-fluoro-quinazoline]"
122%,120 nM,"Cc1ccc2ncnc(N3CCc4ncc(N5CCOc6ncccc65)cc4C3)c2c1 [Compound 92, 1-[6-(6-methylquinazolin-4-yl)-7,8-dihydro-5H-1,6-naphthyridin-3-yl]-2,3-dihydropyrido[2,3-b][1,4]oxazine]"
95%,80 nM,"Cc1ccc2ncnc(N3CCc4ncc(Nc5cccnc5F)cc4C3)c2c1 [Compound 97, N-(2-fluoro-3-pyridyl)-6-(6-methylquinazolin-4-yl)-7,8-dihydro-5H-1,6-naphthyridin-3-amine]"
63%,70 nM,"C[C@@H]1CN(c2cnc3c(c2)CN(c2ncnc4ccc(F)cc24)CC3)CCO1 [Compound 104, (2R)-4-[6-(6-fluoroquinazolin-4-yl)-7,8-dihydro-5H-1,6-naphthyridin-3-yl]-2-methyl-morpholine]"
109%,50 nM,"Fc1cc2ncnc(N3CCc4ncc(N5CCCn6nccc65)cc4C3)c2cc1F [Compound 93, 4-[3-(6,7-dihydro-5H-pyrazolo[1,5-a]pyrimidin-4-yl)-7,8-dihydro-5H-1,6-naphthyridin-6-yl]-6,7-difluoro-quinazoline]"
85%,30 nM,"Cc1nc(N2CCc3ncc(N4CCOc5ncccc54)cc3C2)c2cc(F)ccc2n1 [Compound 85, 1-[6-(6-fluoro-2-methyl-quinazolin-4-yl)-7,8-dihydro-5H-1,6-naphthyridin-3-yl]-2,3-dihydropyrido[2,3-b][1,4]oxazine]"
